Test results: article PMC6588697, “Lugdunin amplifies innate immune responses in the skin in synergy with host- and microbiota-derived factors” (Nature Communications, 2019)
Values joined by “and” are separate entries in the source; they are usually repeats but may differ in a detail not shown here. Equal entries are not always repeated.

Assays:
PHKs = assay: AMP gene expression in PHKs (qRT-PCR, normalized to actin); format: cell-based, human; conditions: 20 h, 2 µM lugdunin and/or S. epidermidis CM, medium = 1, two technical replicates, Fig 1c
Method: Fig. 1 Lugdunin sensitizes epithelial cells for innate immune defense. a Primary human keratinocytes (PHKs) were pretreated with S. epidermidis conditioned medium (CM), indicated lugdunin concentrations, or the combination of both for 20 h. Subsequently, cells were infected with S. aureus for 1.5 h followed by cell lysis and determination of colony-forming units (CFUs). Shown is one representative experiment of three independent experiments with six technical replicates ± s.e.m. n.s., not significant. b Dorsal skin of mice was pretreated with S. epidermidis CM, 1.5 µg lugdunin alone or in combination with S. epidermidis CM for 24 h. Subsequently, S. aureus CFUs were determined. Horizontal lines represent the mean of each group ± s.e.m. c PHKs were treated with 2 μM lugdunin or with S. epidermidis CM alone or in combination for 20 h and subsequently expression of indicated antimicrobial peptides (AMPs) (respective protein names in brackets) was analyzed and normalized to actin. Shown is one representative experiment of three independent experiments with two technical replicates ± s.e.m. d PHKs were treated with 2 µM lugdunin or 100 ng/mL Pam2Cys for 5 h and subsequently the concentration of indicated cytokines in the supernatant was analyzed by LEGENDplex^TM (BioLegend). Shown is one representative experiment of three independent experiments with two technical replicates ± s.e.m. e PHKs were treated with increasing concentrations of lugdunin or 100 ng/mL Pam2Cys or Pam3Cys for 5 h and subsequently expression of chemokine (C-X-C motif) ligand 8 (CXCL8) was analyzed and normalized to actin. Shown is one representative experiment of three independent experiments, each with two technical replicates ± s.e.m. f, g Indicated cells were treated with 2 µM lugdunin or 100 ng/mL Pam2Cys as a positive control for 5 h and subsequently the concentration of CXCL8 (f) and interleukin-1α (IL-1α) (g) in the supernatant was analyzed by LEGENDplex^TM (BioLegend) and enzyme-linked immunosorbent assay (ELISA) (R&D Systems). Shown is one representative experiment of three independent experiments with two technical replicates ± s.e.m. Significant differences to control treatments were analyzed by ordinary one-way analysis of variance (ANOVA) followed by Dunnett’s multiple comparisons test (*P < 0.05; **P < 0.01; ***P < 0.001; ****P < 0.0001). n.d. = not detected. Source data are provided as a Source Data file
After 5 h or 20 h of peptide treatment, PHKs were washed once with PBS, followed by the addition of RNA lysis buffer directly into the well. Total RNA was extracted using the Nucleospin RNA Kit (Macherey-Nagel) according to the manufacturer’s protocol. Complementary DNA was synthesized using the Reverse-Transkriptase Kit (Thermo Scientific) with 2 µg of RNA, 4 µL of 5× RT buffer, 0.5 µL Maxima reverse transcriptase ([…]), 1 µL of random hexamer primer (100 µM), dNTP (10 mM), and RNAse-free water to a total volume of 20 µL. After pre-incubation of RNA with water for 10 min at 70 °C, master mix was added and incubated for 10 min at 25 °C, followed by 45 min at 50 °C and a final heat inactivation step for 5 min at 85 °C.
Quantitative reverse transcription-polymerase chain reaction (qRT-PCR) was performed in 10 µL reaction volume with SYBR^TM Green PCR Master Mix (Thermo Fisher) according to the manufacturer’s instructions using a LightCycler 96 (Roche Life Science). […]
11 subsequently expression of CAMP (LL-37) was analyzed and normalized to actin. […]

S. aureus = assay: Adhesion and invasion assay: S. aureus on pretreated PHKs (CFU); format: cell-based, Staphylococcus aureus; conditions: lugdunin alone; text to Fig 1a
Method: Fig. 1 Lugdunin sensitizes epithelial cells for innate immune defense. a Primary human keratinocytes (PHKs) were pretreated with S. epidermidis conditioned medium (CM), indicated lugdunin concentrations, or the combination of both for 20 h. Subsequently, cells were infected with S. aureus for 1.5 h followed by cell lysis and determination of colony-forming units (CFUs). Shown is one representative experiment of three independent experiments with six technical replicates ± s.e.m. n.s., not significant. b Dorsal skin of mice was pretreated with S. epidermidis CM, 1.5 µg lugdunin alone or in combination with S. epidermidis CM for 24 h. Subsequently, S. aureus CFUs were determined. Horizontal lines represent the mean of each group ± s.e.m. c PHKs were treated with 2 μM lugdunin or with S. epidermidis CM alone or in combination for 20 h and subsequently expression of indicated antimicrobial peptides (AMPs) (respective protein names in brackets) was analyzed and normalized to actin. Shown is one representative experiment of three independent experiments with two technical replicates ± s.e.m. d PHKs were treated with 2 µM lugdunin or 100 ng/mL Pam2Cys for 5 h and subsequently the concentration of indicated cytokines in the supernatant was analyzed by LEGENDplex^TM (BioLegend). […]

Substance: Lugdunin
- CAMP (LL-37) expression normalized to actin (PHKs): 189.36 and 213.04
- DEFB1 (HBD-1) expression normalized to actin (PHKs): 1.91
- DEFB4A (HBD-2) expression normalized to actin (PHKs): 0.69 and 0.77
- DEFB103A (HBD-3) expression normalized to actin (PHKs): 1.53 and 1.71
- RNASE7 (RNase7) expression normalized to actin (PHKs): 2.34 and 2.18
- lugdunin concentration at which pretreatment of PHKs significantly reduced the number of adhering S. aureus (S. aureus): ≥ 2 µM
